The numbers were not newly measured in US20260293888A1, “METHODS OF TREATING MOLD” (priority 2023, published 2026), which cites them from elsewhere.

Consider `OCCOCCOCCO` [Triethylene glycol, triethylene glycol], for which the flash point (TEG alone) is 157 °C. For the same molecule, the boiling point (at a pressure of 101.325 kPa) was 286.5 °C. For the same molecule, the vapor pressure entry (compared to water) is listed as “relative low vapor pressure compared to water”. Besides, the miscibility with water result (water) is recorded as “miscible with water”.

As usually defined, the boiling point is the temperature of boiling at a given pressure.
